Results taken from the NIST ThermoML archive (doi:10.1021/acs.jced.8b00438).

Assay: xn = mol fraction of the nth substance listed
Details: 100 kPa, Liquid; for mass density: Vibrating tube method; for viscosity: Falling or rolling sphere viscometry

CCCCCCCCCCCC [dodecane] + CCCCO
Details | mass density, 313.15 K [kg/m3] | mass density, 318.15 K [kg/m3] | mass density, 323.15 K [kg/m3] | mass density, 328.15 K [kg/m3] | mass density, 333.15 K [kg/m3] | viscosity, 318.15 K [mPa·s] | viscosity, 323.15 K [mPa·s] | viscosity, 328.15 K [mPa·s] | viscosity, 333.15 K [mPa·s]
x1 = 0.1045 | 779.2 | 775.23 | 771.21 | 767.14 | 763.01 | 1.379 | 1.241 | 1.121 | 1.017
x1 = 0.2008 | 768.93 | 764.95 | 760.93 | 756.86 | 752.73 | 1.239 | 1.122 | 1.02 | 0.931
x1 = 0.3002 | 760.78 | 756.81 | 752.8 | 748.75 | 744.64 | 1.138 | 1.038 | 0.949 | 0.871
x1 = 0.3985 | 754.33 | 750.39 | 746.41 | 742.38 | 738.31 | 1.075 | 0.985 | 0.906 | 0.837
x1 = 0.4995 | 748.93 | 745.02 | 741.07 | 737.08 | 733.06 | 1.022 | 0.942 | 0.871 | 0.808
x1 = 0.5978 | 744.69 | 740.81 | 736.9 | 732.96 | 728.98 | 0.997 | 0.923 | 0.856 | 0.797
x1 = 0.7012 | 740.88 | 737.02 | 733.15 | 729.25 | 725.32 | 0.972 | 0.902 | 0.84 | 0.784
x1 = 0.7671 | 739.06 | 735.24 | 731.4 | 727.53 | 723.64 | 0.968 | 0.9 | 0.839 | 0.785
x1 = 0.8773 | 736.32 | 732.55 | 728.77 | 724.96 | 721.13 | 0.964 | 0.899 | 0.839 | 0.785
x1 = 1 | 734.31 | 730.66 | 727 | 723.33 | 719.65 | 1.003 | 0.936 | 0.877 | 0.823
